Results published in ChEMBL document CHEMBL4507317, “Data for DCP probe BAY-899” (2021).

Experiments:
[1] = target: 5-hydroxytryptamine receptor 5A (Homo sapiens) (UniProt P47898); conditions: Compound concentration 10.0 uM
[2] = target: Lutropin-choriogonadotropic hormone receptor (Homo sapiens, UniProt P22888); assay: Cell-based assay (LH Antagonism)
[3] = target: Cyclin-dependent kinase-like 2 (Homo sapiens) (UniProt Q92772); conditions: Compound concentration 1000.0 nM
[4] = target: 5-hydroxytryptamine receptor 2A (Homo sapiens, UniProt P28223); assay: GPCRScan assay: inhibition of 5-HT2A; design: radioligand conc. used [nm] 1.2 – 2.4, parental cells HEKT
[5] = target: T1, 5-hydroxytryptamine receptor 2B (Homo sapiens, UniProt P41595); assay: GPCRScan assay: inhibition of 5-HT2B; design: radioligand conc. used [nm] 1.0 – 2.0, parental cells stable HEK
T1 sequence (P41595 whole entry): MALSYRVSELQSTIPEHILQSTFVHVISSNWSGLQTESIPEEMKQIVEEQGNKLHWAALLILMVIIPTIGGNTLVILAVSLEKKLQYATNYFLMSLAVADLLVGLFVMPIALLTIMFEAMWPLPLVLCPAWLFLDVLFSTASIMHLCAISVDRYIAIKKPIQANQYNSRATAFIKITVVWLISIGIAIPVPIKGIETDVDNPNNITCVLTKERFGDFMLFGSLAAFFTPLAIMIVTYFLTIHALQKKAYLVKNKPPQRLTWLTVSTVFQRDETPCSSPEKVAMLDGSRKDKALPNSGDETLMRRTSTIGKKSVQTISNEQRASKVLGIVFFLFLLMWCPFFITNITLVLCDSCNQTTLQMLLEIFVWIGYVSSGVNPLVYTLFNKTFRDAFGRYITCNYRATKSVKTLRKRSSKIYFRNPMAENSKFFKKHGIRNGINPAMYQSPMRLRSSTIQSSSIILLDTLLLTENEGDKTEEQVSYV

[6] = target: Delta-type opioid receptor (Homo sapiens) (UniProt P41143); conditions: Compound concentration 10.0 uM
[7] = target: Histamine H3 receptor (Homo sapiens) (UniProt Q9Y5N1); assay: H3 Eurofins Bayer panel; conditions: Compound concentration 10.0 uM
Histamine H3 receptor (Homo sapiens), sequence (Q9Y5N1 whole entry): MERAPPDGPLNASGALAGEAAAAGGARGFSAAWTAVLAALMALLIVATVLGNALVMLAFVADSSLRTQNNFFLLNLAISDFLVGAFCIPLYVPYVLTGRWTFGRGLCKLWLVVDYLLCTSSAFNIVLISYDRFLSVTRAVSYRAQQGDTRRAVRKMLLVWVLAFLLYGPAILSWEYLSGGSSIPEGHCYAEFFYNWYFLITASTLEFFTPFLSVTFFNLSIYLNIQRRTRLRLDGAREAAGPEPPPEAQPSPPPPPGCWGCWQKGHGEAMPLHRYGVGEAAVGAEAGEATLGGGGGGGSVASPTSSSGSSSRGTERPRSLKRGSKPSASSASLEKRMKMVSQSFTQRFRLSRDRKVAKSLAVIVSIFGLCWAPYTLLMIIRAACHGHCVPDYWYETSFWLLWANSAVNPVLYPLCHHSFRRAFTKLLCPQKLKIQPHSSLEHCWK

[8] = target: Adenosine receptor A2b (Homo sapiens) (UniProt P29275); assay: A2B Eurofins Bayer panel; conditions: Compound concentration 10.0 uM
Adenosine receptor A2b (Homo sapiens), sequence (P29275 whole entry): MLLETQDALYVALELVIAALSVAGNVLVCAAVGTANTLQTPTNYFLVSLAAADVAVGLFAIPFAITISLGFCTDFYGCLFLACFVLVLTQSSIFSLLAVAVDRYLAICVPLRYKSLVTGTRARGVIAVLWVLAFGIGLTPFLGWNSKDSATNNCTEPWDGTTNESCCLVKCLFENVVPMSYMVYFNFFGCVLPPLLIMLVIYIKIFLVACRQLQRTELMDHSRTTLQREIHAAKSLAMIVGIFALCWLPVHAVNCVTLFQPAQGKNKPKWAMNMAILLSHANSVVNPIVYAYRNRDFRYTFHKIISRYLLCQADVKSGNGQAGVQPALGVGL

[9] = target: Histamine H2 receptor (Homo sapiens) (UniProt P25021); assay: H2 Eurofins Bayer panel; conditions: Compound concentration 10.0 uM
Histamine H2 receptor (Homo sapiens), sequence (P25021 whole entry): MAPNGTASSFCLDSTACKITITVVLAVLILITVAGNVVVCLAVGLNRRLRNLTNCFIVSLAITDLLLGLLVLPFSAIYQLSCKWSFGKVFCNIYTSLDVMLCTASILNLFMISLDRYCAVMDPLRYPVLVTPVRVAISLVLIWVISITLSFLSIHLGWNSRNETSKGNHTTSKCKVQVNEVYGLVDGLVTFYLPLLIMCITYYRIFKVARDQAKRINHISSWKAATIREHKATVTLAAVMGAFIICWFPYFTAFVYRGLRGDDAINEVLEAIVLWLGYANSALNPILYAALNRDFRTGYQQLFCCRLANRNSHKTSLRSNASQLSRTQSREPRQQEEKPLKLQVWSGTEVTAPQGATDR

[10] = target: Kappa-type opioid receptor (Homo sapiens, UniProt P41145); assay: kappa (KOP) Eurofins Bayer panel; conditions: Compound concentration 10.0 uM
Kappa-type opioid receptor, sequence (P41145 whole entry): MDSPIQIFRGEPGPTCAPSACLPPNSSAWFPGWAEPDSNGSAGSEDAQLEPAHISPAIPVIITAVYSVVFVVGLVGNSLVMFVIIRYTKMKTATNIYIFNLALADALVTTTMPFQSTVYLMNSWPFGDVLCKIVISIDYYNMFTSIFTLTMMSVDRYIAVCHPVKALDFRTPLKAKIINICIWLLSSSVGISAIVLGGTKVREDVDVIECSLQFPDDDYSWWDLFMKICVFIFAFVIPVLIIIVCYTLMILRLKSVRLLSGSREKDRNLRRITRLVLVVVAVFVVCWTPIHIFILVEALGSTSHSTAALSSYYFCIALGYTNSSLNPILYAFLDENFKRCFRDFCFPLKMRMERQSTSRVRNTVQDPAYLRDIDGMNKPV

[11] = target: T1, 5-hydroxytryptamine receptor 2B; assay: 5-HT2B Eurofins Bayer panel; conditions: Compound concentration 10.0 uM
[12] = target: Mu-type opioid receptor (Homo sapiens) (UniProt P35372); assay: mu (MOP) Eurofins Bayer panel; conditions: Compound concentration 10.0 uM
Mu-type opioid receptor (Homo sapiens), sequence (P35372 whole entry): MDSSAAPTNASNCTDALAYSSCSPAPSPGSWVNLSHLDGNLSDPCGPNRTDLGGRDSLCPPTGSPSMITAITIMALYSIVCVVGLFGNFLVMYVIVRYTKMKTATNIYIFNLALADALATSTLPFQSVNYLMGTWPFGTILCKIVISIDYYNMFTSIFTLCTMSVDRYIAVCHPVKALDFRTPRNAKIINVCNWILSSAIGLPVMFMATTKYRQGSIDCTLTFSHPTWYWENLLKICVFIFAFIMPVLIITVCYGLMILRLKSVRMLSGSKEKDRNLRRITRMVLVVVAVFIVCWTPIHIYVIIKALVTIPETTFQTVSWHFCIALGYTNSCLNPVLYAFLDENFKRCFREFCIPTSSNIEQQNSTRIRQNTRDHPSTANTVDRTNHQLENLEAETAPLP

[13] = target: D(1A) dopamine receptor (Homo sapiens) (UniProt P21728); assay: D1 Eurofins Bayer panel; conditions: Compound concentration 10.0 uM
[14] = target: P2Y purinoceptor 2 (Homo sapiens) (UniProt P41231); assay: P2Y2 Eurofins Bayer panel; conditions: Compound concentration 10.0 uM
P2Y purinoceptor 2 (Homo sapiens), sequence (P41231 whole entry): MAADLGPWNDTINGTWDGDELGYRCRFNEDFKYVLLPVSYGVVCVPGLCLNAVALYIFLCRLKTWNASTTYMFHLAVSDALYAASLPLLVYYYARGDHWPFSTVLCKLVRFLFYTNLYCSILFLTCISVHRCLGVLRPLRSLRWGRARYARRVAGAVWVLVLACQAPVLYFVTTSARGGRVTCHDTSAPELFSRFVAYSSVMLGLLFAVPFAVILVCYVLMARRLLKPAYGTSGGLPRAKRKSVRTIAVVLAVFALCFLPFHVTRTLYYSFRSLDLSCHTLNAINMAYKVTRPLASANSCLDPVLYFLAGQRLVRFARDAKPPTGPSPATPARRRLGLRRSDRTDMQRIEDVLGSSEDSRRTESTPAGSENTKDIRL

[15] = target: Motilin receptor (Homo sapiens) (UniProt O43193); assay: Motilin Eurofins Bayer panel; conditions: Compound concentration 10.0 uM
[16] = target: T2, 5-hydroxytryptamine receptor 1A (Homo sapiens) (UniProt P08908); assay: 5-HT1A Eurofins Bayer panel; conditions: Compound concentration 10.0 uM
T2 sequence (whole entry): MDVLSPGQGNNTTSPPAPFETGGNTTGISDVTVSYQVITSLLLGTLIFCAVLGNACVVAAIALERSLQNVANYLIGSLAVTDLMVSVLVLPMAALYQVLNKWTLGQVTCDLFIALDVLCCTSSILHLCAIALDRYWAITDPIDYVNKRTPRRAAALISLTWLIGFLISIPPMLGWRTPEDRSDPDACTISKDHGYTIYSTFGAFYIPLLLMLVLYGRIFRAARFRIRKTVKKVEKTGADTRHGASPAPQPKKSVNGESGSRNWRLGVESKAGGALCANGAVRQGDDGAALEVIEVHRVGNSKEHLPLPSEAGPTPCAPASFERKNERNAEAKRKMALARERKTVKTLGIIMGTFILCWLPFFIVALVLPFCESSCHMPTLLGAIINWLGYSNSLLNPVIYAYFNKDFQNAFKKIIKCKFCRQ

[17] = target: T3, Muscarinic acetylcholine receptor M4 (Homo sapiens) (UniProt P08173); assay: M4 Eurofins Bayer panel; conditions: Compound concentration 10.0 uM
T3 sequence (whole entry): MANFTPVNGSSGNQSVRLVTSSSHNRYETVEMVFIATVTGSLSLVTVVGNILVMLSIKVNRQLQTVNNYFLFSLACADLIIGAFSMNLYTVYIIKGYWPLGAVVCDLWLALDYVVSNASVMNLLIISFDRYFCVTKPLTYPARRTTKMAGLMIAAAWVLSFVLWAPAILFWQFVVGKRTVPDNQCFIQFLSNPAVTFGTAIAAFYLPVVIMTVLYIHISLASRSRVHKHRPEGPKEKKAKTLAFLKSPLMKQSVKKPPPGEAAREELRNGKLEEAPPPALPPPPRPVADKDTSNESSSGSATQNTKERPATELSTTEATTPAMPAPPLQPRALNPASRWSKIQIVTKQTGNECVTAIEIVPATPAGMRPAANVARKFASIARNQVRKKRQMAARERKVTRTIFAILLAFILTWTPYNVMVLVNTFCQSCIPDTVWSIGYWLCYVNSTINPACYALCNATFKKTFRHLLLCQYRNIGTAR

[18] = target: D(2) dopamine receptor (Homo sapiens) (UniProt P14416); assay: D2L Eurofins Bayer panel; conditions: Compound concentration 10.0 uM
[19] = target: 5-hydroxytryptamine receptor 6 (Homo sapiens) (UniProt P50406); assay: 5-HT6 Eurofins Bayer panel; conditions: Compound concentration 10.0 uM
5-hydroxytryptamine receptor 6 (Homo sapiens), sequence (P50406 whole entry): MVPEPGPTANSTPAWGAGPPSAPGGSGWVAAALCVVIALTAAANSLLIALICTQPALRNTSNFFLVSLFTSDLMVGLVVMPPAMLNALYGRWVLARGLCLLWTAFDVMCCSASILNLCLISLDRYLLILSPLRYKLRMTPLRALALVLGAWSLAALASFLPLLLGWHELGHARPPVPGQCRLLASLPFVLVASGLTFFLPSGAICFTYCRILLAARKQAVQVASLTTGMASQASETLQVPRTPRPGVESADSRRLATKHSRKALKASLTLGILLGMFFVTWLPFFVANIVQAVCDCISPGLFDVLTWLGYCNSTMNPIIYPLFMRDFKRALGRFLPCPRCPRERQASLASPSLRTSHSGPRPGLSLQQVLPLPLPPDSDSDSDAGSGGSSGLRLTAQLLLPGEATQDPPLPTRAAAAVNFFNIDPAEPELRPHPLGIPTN

[20] = target: Substance-P receptor (Homo sapiens) (UniProt P25103); assay: NK1 Eurofins Bayer panel; conditions: Compound concentration 10.0 uM
[21] = target: Beta-2 adrenergic receptor (Homo sapiens) (UniProt P07550); assay: beta 2 Eurofins Bayer panel; conditions: Compound concentration 10.0 uM
[22] = target: Prostaglandin E2 receptor EP3 subtype (Homo sapiens) (UniProt P43115); assay: EP3 Eurofins Bayer panel; conditions: Compound concentration 10.0 uM
[23] = target: Beta-1 adrenergic receptor (Homo sapiens) (UniProt P08588); assay: beta 1 Eurofins Bayer panel; conditions: Compound concentration 10.0 uM
Beta-1 adrenergic receptor (Homo sapiens), sequence (P08588 whole entry, looked up): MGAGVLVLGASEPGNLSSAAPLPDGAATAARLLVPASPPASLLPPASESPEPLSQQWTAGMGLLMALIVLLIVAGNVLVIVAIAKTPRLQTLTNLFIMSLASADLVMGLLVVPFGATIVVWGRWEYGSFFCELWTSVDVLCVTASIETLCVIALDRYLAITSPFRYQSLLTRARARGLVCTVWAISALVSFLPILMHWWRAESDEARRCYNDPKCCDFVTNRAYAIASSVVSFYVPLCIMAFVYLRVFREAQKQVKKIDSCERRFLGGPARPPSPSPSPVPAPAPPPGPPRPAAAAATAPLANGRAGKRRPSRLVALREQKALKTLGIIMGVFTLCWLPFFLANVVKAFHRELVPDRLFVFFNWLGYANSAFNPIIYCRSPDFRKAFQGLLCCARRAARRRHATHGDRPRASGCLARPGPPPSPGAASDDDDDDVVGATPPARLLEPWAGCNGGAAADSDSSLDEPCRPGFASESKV

[24] = target: Cannabinoid receptor 1 (Homo sapiens) (UniProt P21554); assay: CB1 Eurofins Bayer panel; conditions: Compound concentration 10.0 uM
[25] = target: T4, Muscarinic acetylcholine receptor M1 (Homo sapiens) (UniProt P11229); assay: M1 Eurofins Bayer panel; conditions: Compound concentration 10.0 uM
T4 sequence (whole entry): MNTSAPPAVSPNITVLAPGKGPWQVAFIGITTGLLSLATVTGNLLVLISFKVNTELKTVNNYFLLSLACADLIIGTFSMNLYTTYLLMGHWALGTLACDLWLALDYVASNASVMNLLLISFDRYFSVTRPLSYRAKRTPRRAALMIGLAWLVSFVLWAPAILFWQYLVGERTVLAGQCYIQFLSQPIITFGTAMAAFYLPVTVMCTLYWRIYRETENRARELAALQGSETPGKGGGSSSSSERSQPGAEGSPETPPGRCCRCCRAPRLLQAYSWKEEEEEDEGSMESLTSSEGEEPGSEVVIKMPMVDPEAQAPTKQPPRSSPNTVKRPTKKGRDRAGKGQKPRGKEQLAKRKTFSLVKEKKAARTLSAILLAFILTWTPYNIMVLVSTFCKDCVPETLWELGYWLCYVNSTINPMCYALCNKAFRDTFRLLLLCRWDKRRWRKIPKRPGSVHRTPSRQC

[26] = target: Somatostatin receptor type 4 (Homo sapiens) (UniProt P31391); assay: sst4 Eurofins Bayer panel; conditions: Compound concentration 10.0 uM
Somatostatin receptor type 4 (Homo sapiens), sequence (P31391 whole entry): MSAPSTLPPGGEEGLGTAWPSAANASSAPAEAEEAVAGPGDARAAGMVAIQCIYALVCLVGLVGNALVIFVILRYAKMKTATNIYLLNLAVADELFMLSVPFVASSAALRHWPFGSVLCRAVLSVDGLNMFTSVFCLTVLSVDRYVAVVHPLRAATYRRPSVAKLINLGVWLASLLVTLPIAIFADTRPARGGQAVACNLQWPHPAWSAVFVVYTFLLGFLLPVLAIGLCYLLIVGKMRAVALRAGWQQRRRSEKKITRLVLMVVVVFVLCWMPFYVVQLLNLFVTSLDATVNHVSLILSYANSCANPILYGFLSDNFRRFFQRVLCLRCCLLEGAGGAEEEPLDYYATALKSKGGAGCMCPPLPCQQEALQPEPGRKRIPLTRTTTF

[27] = target: Histamine H1 receptor (Homo sapiens) (UniProt P35367); assay: H1 Eurofins Bayer panel; conditions: Compound concentration 10.0 uM

Cyclin-dependent kinase-like 2 (Homo sapiens), sequence (Q92772 whole entry): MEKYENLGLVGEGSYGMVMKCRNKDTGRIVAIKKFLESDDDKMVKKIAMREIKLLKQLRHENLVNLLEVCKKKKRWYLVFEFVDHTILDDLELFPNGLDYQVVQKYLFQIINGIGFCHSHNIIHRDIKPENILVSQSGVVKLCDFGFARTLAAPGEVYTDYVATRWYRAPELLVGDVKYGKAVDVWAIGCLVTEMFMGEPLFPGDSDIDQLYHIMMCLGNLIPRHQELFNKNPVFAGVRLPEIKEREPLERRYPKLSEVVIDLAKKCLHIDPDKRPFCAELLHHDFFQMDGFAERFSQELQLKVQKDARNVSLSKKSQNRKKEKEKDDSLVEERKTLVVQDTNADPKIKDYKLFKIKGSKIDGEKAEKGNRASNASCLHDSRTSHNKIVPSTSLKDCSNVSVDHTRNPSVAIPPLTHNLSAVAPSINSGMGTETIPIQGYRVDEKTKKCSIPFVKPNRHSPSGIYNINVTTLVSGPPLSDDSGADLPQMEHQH
5-hydroxytryptamine receptor 5A (Homo sapiens), sequence (P47898 whole entry): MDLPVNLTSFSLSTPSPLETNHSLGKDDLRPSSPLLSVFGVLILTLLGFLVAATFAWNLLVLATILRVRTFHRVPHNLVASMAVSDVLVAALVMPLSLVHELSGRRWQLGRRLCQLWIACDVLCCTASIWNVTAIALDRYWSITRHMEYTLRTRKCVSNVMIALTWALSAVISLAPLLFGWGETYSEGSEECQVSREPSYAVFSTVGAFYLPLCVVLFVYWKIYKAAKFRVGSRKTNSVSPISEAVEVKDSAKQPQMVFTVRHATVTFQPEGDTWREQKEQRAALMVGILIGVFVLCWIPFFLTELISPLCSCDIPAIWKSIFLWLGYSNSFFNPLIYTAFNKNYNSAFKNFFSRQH

O=C(Nc1ccc(Oc2ccc(F)cc2)cc1)N1CCc2ncccc2[C@H]1c1ccc(F)cc1 [BAY-897]
inhibition [1]: 7.18% | IC50 [2]: > 16 µM (not active) | residual activity [3]: 77% | Ki [4]: 3.67 µM | Ki [5]: 5.25 µM | inhibition [6]: 32.7%

O=C(Nc1cnc(Oc2ccc(F)cc2)nc1)N1CCc2ncccc2[C@@H]1c1ccc(F)cc1 [BAY-899]
Activation (% of control) [7]: 38% | Inhibition (% of control) [7]: -19% | Activation (% of control) [8]: -1% | Inhibition (% of control) [8]: 16% | Activation (% of control) [9]: -2% | Inhibition (% of control) [9]: 34% | Activation (% of control) [10]: 56% | Inhibition (% of control) [10]: -10% | Activation (% of control) [11]: 1% | Inhibition (% of control) [11]: 18% | residual activity [3]: 33% | Activation (% of control) [12]: 56% | Inhibition (% of control) [12]: 8% | Activation (% of control) [13]: -1% | Inhibition (% of control) [13]: 15% | Activation (% of control) [14]: -1% | Inhibition (% of control) [14]: 8% | Activation (% of control) [15]: -1% | Inhibition (% of control) [15]: 28% | Activation (% of control) [16]: 1% | Inhibition (% of control) [16]: 0% | Activation (% of control) [17]: -6% | Inhibition (% of control) [17]: 2% | Activation (% of control) [18]: -1% | Inhibition (% of control) [18]: 67% | Activation (% of control) [19]: -1% | Inhibition (% of control) [19]: 12% | Activation (% of control) [20]: -3% | Inhibition (% of control) [20]: 24% | Activation (% of control) [21]: -3% | Inhibition (% of control) [21]: 26% | Activation (% of control) [22]: -1% | Inhibition (% of control) [22]: -5% | Activation (% of control) [23]: -1% | Inhibition (% of control) [23]: 13% | Activation (% of control) [24]: 52% | Inhibition (% of control) [24]: 4% | Activation (% of control) [25]: 1% | Inhibition (% of control) [25]: 32% | Activation (% of control) [26]: 23% | Inhibition (% of control) [26]: 6% | Activation (% of control) [27]: -4% | Inhibition (% of control) [27]: 4%
